The results in this text go back to patent US20240294508A1, “RIP1 MODULATORS INCLUDING AZETIDINE CYCLIC UREAS, PREPARATIONS, AND USES THEREOF” (SIRONAX LTD., priority 2021, published 2024).

What is called EC50 is the concentration at which the effect is half-maximal.

In this experiment the test system is HT-29 cells. The experiment in a line: HT29 cells 0FBS assay in vitro: TNF-α/SMAC mimetic/zVAD-FMK induced necroptosis, CellTiter-Glo cell viability (RIP1 inhibitory activity). Conditions: Homo sapiens, FBS free medium, TNF-α (10 ng/ml) + SMAC mimetic (6 uM) + zVAD-FMK (10 μM), 20 hours, geometric mean EC50. It counts as cell-based. An outline of the steps:
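Luminescent ATP read-out (CellTiter-Glo) gave viability of HT-29 cells after 20 h at 37° C in serum-free medium containing compound and a necroptosis cocktail of 10 ng/ml TNF-α, 6 uM SMAC mimetic and 10 μM zVAD-FMK. EC50s are geometric means of 10-point curves run in duplicate.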
`Cc1cnn(C)c1-c1cc(OC2CN(C(=O)C3=NNCC3c3cc(F)cc(F)c3)C2)c(F)cn1` (centres unmarked) [Compound 161, (4-(3,5-difluorophenyl)-4,5-dihydro-1H-pyrazol-3-yl)(3-((2-(1,4-dimethyl-1H-pyrazol-5-yl)-5-fluoropyridin-4-yl)oxy)azetidin-1-yl)methanone]: the EC50 fell in the range of 0.1 to 100 nM.

On to `Cc1nn(-c2cc(OC3CN(C(=O)C4=NNCC4c4cc(F)cc(F)c4)C3)c(F)cn2)c(C)c1C(N)=O` (centres unmarked) [Compound 162, 1-(4-((1-(4-(3,5-difluorophenyl)-4,5-dihydro-1H-pyrazole-3-carbonyl)azetidin-3-yl)oxy)-5-fluoropyridin-2-yl)-3,5-dimethyl-1H-pyrazole-4-carb oxamide], for which the EC50 is 0.1 to 100 nM.

Turning to `COc1ncccc1-c1ncc(F)c(OC2CN(C(=O)N3N=CC[C@H]3c3cc(F)cc(F)c3)C2)n1` [Compound 163, (S)-(5-(3,5-difluorophenyl)-4,5-dihydro-1H-pyrazol-1-yl)(3-((5-fluoro-2-(2-methoxypyridin-3-yl)pyrimidin-4-yl)oxy)azetidin-1-yl)methanone], the EC50 lay in the range of 0.1 to 100 nM.

With `COc1ncccc1-c1cc(OC2CN(C(=O)N3N=CC[C@H]3c3cc(F)cc(F)c3)C2)c(F)cn1` [Compound 164, (S)-(5-(3,5-difluorophenyl)-4,5-dihydro-1H-pyrazol-1-yl)(3-((5-fluoro-2′-methoxy-[2,3′-bipyridin]-4-yl)oxy)azetidin-1-yl)methanone], the EC50 was in the range of 0.1 to 100 nM.

As to `COc1nccc(C)c1-c1cc(OC2CN(C(=O)N3N=CC[C@H]3c3cc(F)cc(F)c3)C2)c(F)cn1` [Compound 165, (S)-(5-(3,5-difluorophenyl)-4,5-dihydro-1H-pyrazol-1-yl)(3-((5-fluoro-2′-methoxy-4′-methyl-[2,3′-bipyridin]-4-yl)oxy)azetidin-1-yl)methanone], the EC50 was 100 to 1000 nM.

For `Cc1cc[nH]c(=O)c1-c1cc(OC2CN(C(=O)N3N=CC[C@H]3c3cc(F)cc(F)c3)C2)c(F)cn1` [Compound 166, (S)-4-((1-(5-(3,5-difluorophenyl)-4,5-dihydro-11H-pyrazole-1-carbonyl)azetidin-3-yl)oxy)-5-fluoro-4′-methyl-[2,3′-bipyridin]-2′(1′H)-one], the EC50 is 100 to 1000 nM.

Consider `O=C(N1CC(Oc2cc(-c3ccc[nH]c3=O)ncc2F)C1)N1N=CC[C@H]1c1cc(F)cc(F)c1` [Compound 167, (S)-4-((1-(5-(3,5-difluorophenyl)-4,5-dihydro-1H-pyrazole-1-carbonyl)azetidin-3-yl)oxy)-5-fluoro-[2,3′-bipyridin]-2′(1′H)-one], for which the EC50 fell in the range of 0.1 to 100 nM.

For the compound `Cc1ccn(C)c(=O)c1-c1cc(OC2CN(C(=O)N3N=CC[C@H]3c3cc(F)cc(F)c3)C2)c(F)cn1` [Compound 168, (S)-4-((1-(5-(3,5-difluorophenyl)-4,5-dihydro-1H-pyrazole-1-carbonyl)azetidin-3-yl)oxy)-5-fluoro-1′,4′-dimethyl-[2,3′-bipyridin]-2′(1′H)-one], the EC50 lay within 1000 to 10000 nM.
